Patent US6821761B2, “Sphingolipid ceramide N-deacylase, methods for producing sphingolipids and sphingolipid derivatives, and sphingolipid ceramide N-deacylase gene” (Takara Bio, Inc., priority 1994, dated 2004)

Assays:
[1] = system: crude SCDase; test: Substrate specificity of crude SCDase (culture supernatant) from Shewanella alga NS-589; format: biochemical; conditions: SCDase produced by Shewanella alga NS-589
Excerpt: Acting on acidic glycolipids (GM1, GM2, GD1a, GD1b, sialosyl paragloboside, etc.), neutral glycolipids (lactosyl ceramide, Gb4, Gb5, etc.), sulfated glycolipids (sulfatide, etc.) and sphingomyelin which is a sphingophospholipid, thus forming the corresponding lysosphingolipid and fatty acid in each case.
The substrate specificity was examined as follows. Shewanella alga NS-589 was inoculated into a synthetic medium (dipotassium hydrogenphosphate 0.05%, ammonium chloride 0.05%, sphingomyelin 0.1%, sodium taurodeoxycholate 0.1%, sodium chloride 2%, 2,6-O-dimethyl-β-cyclodextrin 0.1%; pH 7.4). Two days after shaking cultivation at 30° C., the strain was removed to obtain a supernatant by centrifuge. A 50 mM acetate buffer ([…]; pH 6.0) containing 3 μl of the supernatant and 1.6% Triton X-100 was allowed to react with 5 μl of 1.2 mM of each of sphingolipids shown in Table 2 at 37° C. for 16 hours, and then the resulting mixture was analyzed with a thin layer chromatography.
The digestion ratios of various substrates by a crude SCDase obtained from Shewanella alga NS-589.

[2] = system: Shewanella alga NS-589; test: Conversion of sphingomyelin into sphingosylphosphorylcholine by culture of Shewanella alga NS-589; format: cell-based; conditions: synthetic medium, sphingomyelin 0.1%, 30° C. shaking 2 days, TLC
Method: Shewanella alga NS-589 was inoculated into 200 ml of a synthetic medium (dipotassium hydrogenphosphate 0.05%, ammonium chloride 0.05%, sphingomyelin 0.1%, sodium taurodeoxycholate 0.1%, sodium chloride 2%, 2,6-O-dimethyl-β-cyclodextrin 0.1%; pH 7.4) and incubated therein at 30° C. under shaking for 2 days.
Then the cells were eliminated by centrifuging the culture medium to obtain the culture supernatant which was then analyzed by thin layer chromatography. […] This culture medium was added to a C18 reversed phase column [Preoperative C18 125A (manufactured by Millipore), packing: 30 g, column diameter: 30 mm, open column]. After desalting and washing with 300 ml of water, the column was eluted with 300 ml of methanol and 300 ml of chloroform/methanol=1/1 (by volume). Then the sphingosylphosphorylcholine was eluted into the methanol fraction. After removing the solvent in the sphingosylphosphorylcholine fraction with a rotary evaporator, the residue was added to a silica gel 60 column (manufactured by Merck) and fractionated with chloroform/methanol/water=5/4/1 (by volume). Further, the solvent in the sphingosylphosphorylcholine fraction thus obtained was removed with a rotary evaporator and the residue was freeze-dried. Thus 47.6 mg of purified sphingosylphosphorylcholine could be obtained.

[3] = system: SCDase derived from the genus Pseudomonas; test: Fatty acid exchange reaction on various acceptors by SCDase; format: biochemical; conditions: 1 nmol [1-14C] stearic acid, 1 nmol sphingolipid, 30 μU SCDase, acetate buffer pH 6.0, 0.8% Triton X-100, overnight 37° C., galactosyl ceramide = 100
Method: A 10 μl portion of 50 mM acetate buffer (pH 6.0) containing 1 nmol [1−^14C] stearic acid, 1 nmol sphingolipid, 0.8% Triton X-100 and 30 μU SCDase derived from the genus Pseudomonas was allowed to react overnight at 37° C.
The thus obtained reaction solution was developed on thin layer chromatography and exposed to an imaging plate to carry out determination of the reaction product by BAS 1000 Imaging Analyzer (manufactured by Fuji Photo Film).

[4] = system: SCDase; test: Substrate specificity (hydrolysis) of purified SCDase from Pseudomonas sp. TK-4; format: biochemical; conditions: 10 nmol sphingolipid, 2 milliunits enzyme, 37° C. 16 h, 20 mM sodium acetate buffer pH 5.0, 0.8% Triton X-100, TLC
Method: The enzyme activity of the SCDase is assayed in the following manner. To 10 μl of a substrate solution [50 mM acetate buffer solution (pH 6.0) containing 2 mM of asialo GM1 and 0.6% (w/v) of Triton X-100] is added 10 μl of an enzyme solution. After reacting at 37° C. for 30 minutes, the enzyme reaction is ceased by heating the mixture to 100° C. for 3 minutes. Then the reaction mixture is concentrated to dryness with a centrifugal concentrator. Then the obtained concentrate is dissolved in 10 μl of 50% methanol and placed on a TLC plate (silica gel 60; manufactured by Merck & Co., Inc.). After developing with chloroform/methanol/0.02% aqueous solution of CaCl2 (5/4/1 by volume), the sphingolipid is subjected to color development by the orcinol-sulfuric acid method. […] This spot is determined by using a TLC chromatoscanner (Shimadzu CS-9000, manufactured by Shimadzu Corporation) at a wavelength of 540 nm.
Sphingolipids (10 nmol each) were incubated at 37° C. for 16 h with 2 milliunits of the enzyme in 20 μl of 20 mM sodium acetate buffer, pH 5.0, containing 0.8% Triton X-100. The extent of hydrolysis was examined by TLC and calculated.

[5] = system: Limulus polyphemus ceramidase; test: Ceramidase activity of Limulus polyphemus serum / purified ceramidase on ceramide substrates; format: biochemical
Method: A 10 μl of serum obtained by centrifugation of Limulus polyphemus blood was allowed to undergo 18 hours of reaction at 37° C. with 10 μl of 50 mM acetate buffer (pH 5.0) containing 1 nmol of NBD ceramide prepared in Example 21 and 0.5% Triton X-100. After completion of the reaction, the reaction solution was developed on thin layer chromatography (developing solvent: chloroform/methanol/25% liquid ammonia=90/20/0.5 by volume) and detected under an ultraviolet ray lamp.
In order to confirm that the ceramidase activity found in the Limulus polyphemus serum is really a ceramidase-derived activity, the ceramidase was purified to find that it was an acidic ceramidase having an optimum pH of 4.5 and a molecular weight of about 205 kDa when measured by a gel filtration method.

[6] = system: ceramidase in B16 cells; test: Measurement of ceramidase activity in B16 cells with labeled ceramide substrates; format: biochemical; conditions: B16 cell suspension, 50 μg protein, 0.5% Triton X-100, 37° C. 3 or 6 hours; FIG. 16
Method: Measurement of ceramidase activity in B16 cells using radioisotope labeled ^14C ceramide (C12−^14C-Cer) and fluorescent sphingolipid derivative NBD ceramide (C12-NBD-Cer) as the substrate:
A cell suspension was prepared by suspending 6×10^6 of B16 cells in 200 μl of 10 mM phosphate buffer. The amount of the protein was determined using MicroBCA™ protein assay reagent (manufactured by Pierce).
Under acidic condition in 10 μl of 50 MM acetate buffer (pH 4.0) containing 10 μl of the cell suspension (diluted to a protein content of 50 μg), 200 pmol of C12-NBD-Cer obtained in Example 21 or 100 pmol of C12−^14C-Cer obtained using lauric acid instead of palmitic acid used in Example 20, as the substrate, and 0.5% Triton X-100. […]
Each of the samples was developed on thin layer chromatography (developing solvent, chloroform/methanol/25% liquid ammonia =90/20/0.5 by volume), and the released ^14C fatty acid was determined using BAS 1000 Imaging Analyzer (manufactured by Fuji Photo Film) to calculate the reaction ratio. Also, the released NBD fatty acid was determined using Chromatoscanner CS 9000 (manufactured by Shimadzu Corporation), and the reaction ratio was calculated.

Sphingomyelin was tested, and the “Substrate specificity: acting on the substrate, forming the corresponding lysosphingolipid and fatty acid” value [1] was “Acting on”, the “Sphingomyelin converted into sphingosylphosphorylcholine” value [2] was 80% and the “Relative activity (%)” value [3] was 2.9%. For the same compound, the “Digestion ratio (%)” value [4] was 28%.
For `CCCCCCCCCCCCC/C=C/[C@@H](O)[C@H](CO)NC(=O)CCCCCCCCCCCCCCCCC` [N-stearoylsphingosine (C18:0, d18:1), N-stearoylsphingosine], the “Hydrolysis by purified Limulus polyphemus ceramidase (substrate preference)” value ([5]; purified ceramidase) was “most efficiently”.
In the case of `CCCCCCCCCCCCC/C=C/[C@@H](O)[C@H](CO)NC(=O)CCCCCCCCCCCNc1ccc([N+](=O)[O-])c2nonc12` [NBD ceramide], the “Hydrolysis of substrate by Limulus polyphemus serum (ceramidase activity)” value ([5]; 1 nmol substrate, 10 μl serum, acetate buffer pH 5.0, 0.5% Triton X-100, 18 hours 37° C., TLC under UV) is reported as “a newly formed NBD aminododecanoic acid was detected”, the “Action of acidic ceramidase in B16 cells on substrate” value [6] is reported as “hardly” and the “Action of alkaline ceramidase in B16 cells on substrate” value [6] is reported as “acts well”.
